According to US20110183366A1, “Methods for achieving a protective ACE2 expression level to treat kidney disease and hypertension” (priority 2004, published 2011):
Entries after “also recorded” stand apart in the source; their conditions may differ.

Tests used:
[1] = test system: ACE and ACE2 in kidney cortex; experiment: 7-Mca-YVADAPK(Dnp) fluorescence assay in kidney cortex tissue extracts; format: biochemical, mouse; details: for fluorescence signal, % of control: EDTA 1 mmol/L, captopril and MLN-4760 alone or concomitantly
[2] = test system: db/m and db/db mice; experiment: Urinary albumin/creatinine ratio during chronic ACE2 inhibition in db/m and db/db mice; format: in vivo, mouse
Source text: Pharmacological ACE2 inhibition in db/m and db/db mice. […] Vehicle control mice received injections of sterile PBS in the same volume. […] Urinary albumin/creatinine ratio. ELISA kits for murine urinary albumin and creatinine companion kits from Exocell were used according to manufacturer's instructions to measure albumin/creatinine ratio in urine samples. Spot urine samples were collected at 8 weeks of age, before initiating the administration of the ACE2 inhibitor, and the AT1 blocker (at 8 weeks of age) and after 12 and 16 weeks of administration of these agents. Statistical analysis. Statistical analysis was performed using unpaired t-test or ANOVA when appropriate. Significance was defined as p<0.05. Data were expressed as mean±SE. The Effect of chronic ACE2 inhibition on albumin excretion and glomerular fibronectin deposition. To determine the extent to which chronic ACE2 inhibition results in increased albuminuria in the db/db mice, a specific ACE2 inhibitor, MLN-4760, was administered to the mice for 16 consecutive weeks starting at 8 weeks of age. At 8 weeks of age, before starting MLN or vehicle administration, db/db mice from both groups had virtually indistinguishable levels of urinary albumin excretion (UAE; 69.5±18 vs. 81±15 μg albumin/mg creatinine, respectively). […] In db/m mice treated with MLN-4760, UAE was higher than in the vehicle-treated db/m controls, but the difference was small and not statistically significant (55±24 vs. 32±3, μg/mg, respectively, p=NS).

[3] = test system: db/m and db/db mice; experiment: Glomerular fibronectin staining after chronic ACE2 inhibition; format: in vivo, mouse
Description: Pharmacological ACE2 inhibition in db/m and db/db mice. A specific ACE2 inhibitor, MLN-4760 (kind gift from Millennium Pharmaceuticals, Cambridge, Mass.) was injected to db/m and db/db mice subcutaneously (40-80 mg per kg of body weight (mg/kg/BW), every other day), starting at 8 weeks of age until the mice reached the age of 24 weeks. Vehicle control mice received injections of sterile PBS in the same volume.
Chronic ACE2 inhibition was also associated with an increased glomerular deposition of fibronectin, an extracellular matrix protein. In glomeruli from db/m mice receiving MLN-4760, fibronectin staining was increased as compared to their vehicle-treated db/m counterparts. In db/db mice, the MLN-4760 administration was also associated with an exaggeration of fibronectin staining. The number of glomeruli with strong fibronectin staining was used to semi-quantify the observed changes in kidneys from 12-16 animals in each group.

[4] = target: T1, human recombinant (hr) ACE2 (Homo sapiens, UniProt Q9BYF1); experiment: Fluorescence quenching with 7-Mca-YVADAPK(Dnp) substrate on recombinant ACE2; format: biochemical; details: for quenching of fluorescence: hrACE2 20 nmol/L, inhibitor concentration up to 100 μmol/L
T1 construct: purchased R&D Systems
Description: A fluorescent substrate of ACE and ACE2, i.e., 7-Mca-YVADAPK(Dnp) (R&D Systems), was used to concurrently assay ACE and ACE2 protein activity in tissue samples. Cleavage of this substrate by either enzyme removes the 2,4-dinitrophenyl moiety that quenches the fluorescence of the 7-methoxycoumarin moiety, thus resulting in increased fluorescence. To prevent undesirable hydrolysis of the substrate by a range of non-metalloprotease enzymes from mouse tissues, all tests were performed with the addition of an inhibitor cocktail (complete EDTA-free tablets, Roche).
MLN-4760 quenched the signal completely at 1-10 nmol/L, whereas a higher concentration (100 nmol/L) of DX600 was needed to achieve complete quenching of the signal. Therefore, further studies were done using MLN-4760. In tissue extracts, the concentrations of MLN-4760 required for fluorescence quenching were high and more variable.

[5] = test system: podocytes in culture; details: cited from earlier work

T1 sequence (Q9BYF1 18-805): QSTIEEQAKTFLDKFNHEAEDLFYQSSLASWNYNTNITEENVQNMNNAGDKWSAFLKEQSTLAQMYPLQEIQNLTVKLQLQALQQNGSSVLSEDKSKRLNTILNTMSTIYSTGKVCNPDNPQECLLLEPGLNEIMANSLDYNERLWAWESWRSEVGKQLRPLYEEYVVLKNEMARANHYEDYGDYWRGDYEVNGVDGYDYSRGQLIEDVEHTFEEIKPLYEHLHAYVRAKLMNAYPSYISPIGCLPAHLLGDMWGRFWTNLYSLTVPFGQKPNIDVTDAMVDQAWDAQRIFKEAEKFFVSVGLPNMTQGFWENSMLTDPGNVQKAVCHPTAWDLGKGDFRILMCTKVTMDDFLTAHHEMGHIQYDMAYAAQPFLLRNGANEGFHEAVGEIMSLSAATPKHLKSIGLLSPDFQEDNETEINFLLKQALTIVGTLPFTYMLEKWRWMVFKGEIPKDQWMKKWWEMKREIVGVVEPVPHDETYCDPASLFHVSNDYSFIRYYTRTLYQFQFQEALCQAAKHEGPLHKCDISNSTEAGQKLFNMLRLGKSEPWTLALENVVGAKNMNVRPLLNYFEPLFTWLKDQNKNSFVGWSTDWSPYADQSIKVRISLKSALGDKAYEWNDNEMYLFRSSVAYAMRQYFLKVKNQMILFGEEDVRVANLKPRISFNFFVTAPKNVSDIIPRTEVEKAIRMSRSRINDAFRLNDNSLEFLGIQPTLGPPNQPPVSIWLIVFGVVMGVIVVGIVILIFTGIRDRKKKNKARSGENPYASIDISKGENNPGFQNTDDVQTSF

**Q.** Which “fluorescence signal, % of control” value [1] does the source give for O=C(O)CN(CCN(CC(=O)O)CC(=O)O)CC(=O)O [EDTA] here?
**A.** The value was “about 16 % of control”.

**Q.** With CC(C)C[C@H](N[C@@H](Cc1cncn1Cc1cc(Cl)cc(Cl)c1)C(=O)O)C(=O)O [MLN-4760, (S,S)-2-{1-carboxy-2-[3-(3,5-dichlorobenzyl)-3H-imidazol4-yl]-ethylamino}-4-methylpentanoic acid] as the compound, how does the “increase in UAE in comparison to vehicle db/db controls” value ([2]; db/db mice, 16 weeks of treatment, age 24 weeks) read?
**A.** The value was “about three-fold”.

**Q.** And the albumin/creatinine ratio ([2]; db/db mice, MLN-4760 s.c. 40-80 mg/kg every other day, after 12 weeks of treatment, vehicle 124±23)?
**A.** The albumin/creatinine ratio was 474 ± 166 µg/mg.

**Q.** What about the “urinary albumin excretion (UAE)” value ([2]; db/db mice, after 16 weeks of treatment, age 24 weeks, vehicle 247±53.9) of the same compound?
**A.** Its value is 743 ± 200 µg/mg.

**Q.** What about the “urinary albumin excretion (UAE)” value ([2]; db/m mice treated with MLN-4760, vehicle 32±3, p=NS) of the same compound?
**A.** Its value is 55 ± 24 µg/mg.

**Q.** And the “percentage of glomeruli with strong fibronectin staining” value ([3]; db/db mice treated with MLN-4760, vehicle 28.5%±6.4)?
**A.** Its value is 54.8%±4.6.

**Q.** And the “percentage of glomeruli with strong fibronectin staining” value ([3]; db/m mice receiving MLN-4760, vehicle 17.3%±5.2)?
**A.** Its value is 41.1%±4.1.

**Q.** What about the “concentration for complete quenching of the signal” value ([4]; hrACE2) of the same compound?
**A.** Its value is 1 to 10 nmol/L.

**Q.** What about the “fluorescence signal, % of control” value [1] of the same compound?
**A.** Its value is 46.4±0.7 % of control.

**Q.** Which quenching of fluorescence [4] does the source give for O=C(O)CC(Cc1ccccc1)C(=O)O (stereo not drawn) [benzyl succinate] here?
**A.** Its quenching of fluorescence is “failed to quench fluorescence”.

**Q.** What about the “reduction of fluorescence signal” value ([1]; benzyl succinate 100 μmol/L) of the same compound?
**A.** The value was “did not reduce significantly the fluorescence signal”.

**Q.** What does the source list for C[C@H](CS)C(=O)N1CCC[C@H]1C(=O)O [captopril]?
**A.** quenching of fluorescence [4]: failed to quench fluorescence; fluorescence signal, % of control [1]: 24.9±1.1 % of control; effect on stretch-induced increase in ANG II generation [5]: did not abrogate the stretch-induced increase in ANG II generation

**Q.** For CCCc1nc2c(C)cc(-c3nc4ccccc4n3C)cc2n1Cc1ccc(-c2ccccc2C(=O)O)cc1 [telmisartan], which “effect on the increase in urinary albumin associated with the ACE2 inhibitor” value ([2]; db/db mice, telmisartan 2 mg/kg/day in drinking water together with s.c. MLN-4760) is on record?
**A.** Its value is “prevented the increase in urinary albumin excretion; also recorded: completely prevented the increase in urinary albumin”.
